Where two headings read alike, the source gives them in different places. Values belong to the compound of their own block, whether it stands above or below them.
Assays:
[1] = cited from earlier work
[2] = tested on: cell lines that overexpress Pgp; conditions: Pgp overexpressing cell lines; cited from earlier work
[3] = tested on: cell lines that overexpress MRP7; conditions: MRP7 overexpressing cell lines; cited from earlier work
[4] = tested on: isogenic HeLa-derived cell line that expresses the βIII isotype of tubulin; conditions: cited from earlier work
[5] = tested on: HeLa cells; test: Inhibition of cellular proliferation, SRB assay in HeLa cells; type: cell-based; conditions: for IC50: HeLa cells, SRB assay; for fold increase in potency on epoxidation at C22-C23: epoxide compared with parent taccalonolide
Description: The determination of IC50 values was performed on taccalonolide material after NMR analysis and subsequent lyophilization. Ethanol or DMSO was used as the vehicle for all cellular studies.
The antiproliferative potencies of the taccalonolides were evaluated in HeLa cells using the SRB assay. Several new taccalonolides with low nanomoloar potency were identified, Table 1.

[6] = tested on: HeLa cells; test: Interphase microtubule bundling by indirect immunofluorescence; type: cell-based; conditions: 18 h; 200 nM AF, 200 nM AI, 70 nM AJ
Description: FIGS. 2A-D—Effect of the taccalonolides on interphase cells. HeLa cells were treated for 18 h with vehicle (FIG. 2A), 200 nM taccalonolide AF (FIG. 2B), 200 nM taccalonolide AI (FIG. 2C), or 70 nM taccalonolide AJ (FIG. 2D). Interphase microtubule structures were visualized by indirect immunofluorescence using a β-tubulin antibody.
(§1) Cellular microtubules in interphase and mitotic HeLa cells were visualized using indirect immunofluorescence techniques as previously described (Tinley et al., 2003). […] Representative images of interphase and mitotic cells were acquired using a Nikon Eclipse 80i fluorescence microscope and compiled using NIS Elements AR 3.0 software.

[7] = tested on: HeLa cells; test: Mitotic spindle structures by indirect immunofluorescence; type: cell-based; conditions: 18 h; 125 nM AF, 200 nM AI, 35 nM AJ
Source text: FIGS. 4A-D—Effect of the taccalonolides on mitotic spindles. […] The microtubule structures in mitotic cells were visualized by indirect immunofluorescence using a β-tubulin antibody.
as §1
The effects of the taccalonolides on mitotic spindle structures were evaluated to test whether they caused mitotic spindle defects leading to cell cycle arrest. β-tubulin and DNA were visualized in HeLa cells by indirect immunofluorescence and DAPI staining, respectively. […] These mitotic cells contained multiple abnormal mitotic spindles, which is another common effect of microtubule stabilizing agents (FIGS. 4A-D).

[8] = tested on: purified porcine brain tubulin; test: Tubulin polymerization followed turbidimetrically; type: biochemical; conditions: 10 μM; 2 mg/ml tubulin, 10% glycerol, 1 mM GTP, 37° C., OD340
Description: FIG. 5—Effect of the taccalonolides on purified porcine brain tubulin. […] Tubulin polymerization was monitored by turbidity measurement at OD340.
The ability of these new potent taccalonolides to interact directly with tubulin was assessed by incubating purified porcine brain tubulin at a concentration of 2 mg/ml in the presence of 10% glycerol and 1 mM GTP, which allows for a baseline level of tubulin polymerization that can be followed turbidimetrically (FIG. 5).

[9] = tested on: MDA-MB-231 human breast tumors; test: Antitumor activity against MDA-MB-231 tumors in nude mice; type: in vivo
Description: FIG. 6—Antitumor activity of taccalonolide AF. […] Tumor size was measured using calipers and volume calculated with the formula: Tumor volume (mm^3)=width (mm)×length (mm)×height (mm) and graphed as median tumor size for days 0-8.
The ability of taccalonolide AF to inhibit the growth of the aggressive human breast tumor MDA-MB-231 in a murine host was determined Taccalonolide AF was administered at a dose of 2.5 mg/kg on days 1 and 3.

[10] = tested on: SK-OV-3/MDR-1-6/6 versus SK-OV-3 cells; test: Relative resistance, P-glycoprotein expressing cell line pair; type: cell-based; conditions: P-glycoprotein expressing SK-OV-3 pair
Description: (§2) FIG. 7—Effect of the taccalonolides in drug resistant and sensitive cells. IC50 values for inhibition of cellular proliferation for taccalonolides AF and AJ were determined in drug sensitive and drug resistant cell lines. The HeLa cell pair evaluated the effect of βIII tubulin expression on cell sensitivity and the ability of compounds to overcome drug resistance mediated by βIII tubulin expression. The SK-OV-3 cell line pair was used to evaluate the effects of the expression of P-glycoprotein (Pgp) on cell sensitivity and the ability of compounds to overcome Pgp-mediated drug resistence. The effects of the taccalonolides on the drug senstive prostate cancer cell line PC-3 are also presented. IC50 values were calculated from an average of 3-4 independent experiments, each performed in triplicate.
(§3) The HeLa cervical cancer cell line, the SK-OV-3 ovarian cancer cell line and the PC-3 prostate cancer cell line were obtained from American Type Tissue Culture Collection (Manassas, Va.) and grown in Basal Media Eagle (BME) or RPMI 1640 medium (Invitrogen; Carlsbad, Calif.) supplemented with 10% fetal bovine serum (Hyclone; Logan, Utah) and 50 μg/ml gentamicin sulfate (Invitrogen). […]
(§4) The antiproliferative and cytotoxic effects of the taccalonolides were evaluated using the SRB assay (Skehan et al., 1990, Boyd and Paull, 1995) as previously described (Tinley et al., 2003). […]

[11] = tested on: WTβIII versus HeLa cells; test: Relative resistance, βIII-tubulin expressing cell line pair; type: cell-based
Description: as §2, §3, §4

[12] = tested on: human mammary epithelial cells; test: Cytotoxicity to normal cells; type: cell-based; conditions: concentrations 5 to 100-fold their IC50 values in HeLa
[13] = tested on: doxorubicin- and paclitaxel-resistant Pgp-expressing tumor, Mam17/ADR; conditions: cited from earlier work
[14] = parent taccalonolide, read-out: IC50 (nM), Taccalonolide

Compound: CC(=O)O[C@H]1C[C@H]2[C@H]([C@@H]3[C@@H](O)[C@@H]4[C@H]([C@H](C)C=C5OC(=O)[C@@](C)(O)[C@@]54C)[C@]31C)[C@@H](O)C(=O)[C@H]1C[C@@H]3O[C@@H]3[C@H](OC(C)=O)[C@@]12C [Taccalonolide N]
in vivo antitumor activity [1]: have in vivo antitumor activity
efficacy in vitro [2]: effective
efficacy in vitro [3]: effective

Compound: CC(=O)O[C@H]1[C@H]2[C@H]([C@@H]3[C@@H](O)[C@@H]4[C@H]([C@H](C)C=C5OC(=O)[C@@](C)(O)[C@@]54C)[C@@]3(C)[C@H]1OC(C)=O)[C@@H](O)C(=O)[C@H]1C[C@@H]3O[C@@H]3[C@H](OC(C)=O)[C@]21C [Taccalonolide B]
efficacy in vitro [2]: effective
efficacy in vitro [3]: effective

Compound: CC[C@]1(O)C[C@@H]2CN(CCc3c([nH]c4ccccc34)[C@@](C(=O)OC)(c3cc4c(cc3OC)N(C)[C@H]3[C@@](O)(C(=O)OC)[C@H](OC(C)=O)[C@]5(CC)C=CCN6CC[C@]43[C@@H]65)C2)C1 [vinblastine]
sensitivity of βIII-tubulin-overexpressing cell line compared with parental HeLa cells [4]: less sensitive

IC50 [5, 14]: 7500 nM
Compound: CC(=O)O[C@@H]1[C@H](O)[C@@H]2C([C@H](OC(C)=O)[C@H](OC(C)=O)[C@]3(C)[C@@H]4[C@@H]([C@H](O)[C@@H]23)[C@]2(C)C(=C[C@H]4C)OC(=O)[C@@]2(C)O)[C@]2(C)[C@@H]1C[C@@H]1O[C@@H]1[C@@H]2OC(C)=O (some centres unmarked) [TA-NaBH4-12]

Compound: CC(=O)O[C@H]1[C@@H]2[C@H]([C@H](C)C=C3OC(=O)[C@@](C)(O)[C@@]32C)[C@]2(C)[C@@H]1C1=C(O)C(=O)[C@H]3C[C@@H]4O[C@@H]4[C@H](OC(C)=O)[C@]3(C)[C@H]1[C@H](OC(C)=O)[C@@H]2OC(C)=O [Taccalonolide H2, reference compound]
fold more potent than taccalonolide A ([5]; HeLa IC50): 7.4 fold

Compound: CC(=O)O[C@@H]1[C@H]2[C@H]3C([C@H](OC(C)=O)[C@H](OC(C)=O)[C@]2(C)[C@@H]2[C@@H]1[C@]1(C)C(=C[C@@]2(C)OO)OC(=O)[C@@]1(C)O)[C@]1(C)[C@H](C[C@@H]2O[C@@H]2[C@@H]1OC(C)=O)C(=O)[C@@H]3O (some centres unmarked) [Taccalonolide AC]
IC50 ([5]; Homo sapiens, parent taccalonolide, read-out: IC50 (nM), Taccalonolide): > 50000 nM
IC50 ([5]; Homo sapiens, read-out: IC50 value): > 50000 nM

Compound: CC(=O)O[C@@H]1[C@H]2[C@H]3[C@H]([C@H](OC(C)=O)[C@H](OC(C)=O)[C@]2(C)[C@H]2[C@H](C)[C@H]4O[C@]45OC(=O)[C@@](C)(O)[C@]5(C)[C@@H]12)[C@]1(C)[C@H](C[C@@H]2O[C@@H]2[C@@H]1OC(C)=O)C(=O)[C@@H]3O [Taccalonolide AF]
fold increase in potency on epoxidation at C22-C23 ([5]; HeLa IC50): 234 fold
bundling of interphase microtubules [6]: formation of thick bundled microtubule tufts
effect on mitotic spindles [7]: mitotic arrest of cells with multiple abnormal mitotic spindles
rate and extent of tubulin polymerization [8]: dramatically increased
antitumor activity compared to paclitaxel positive control ([9]; 2.5 mg/kg days 1 and 3 vs 10 mg/kg paclitaxel days 1, 3 and 5, first week of treatment): greater antitumor activity than the positive control
antitumor activity compared to vehicle treated controls ([9]; 2.5 mg/kg on days 1 and 3, preliminary): sufficient to observe antitumor activity
relative resistance (IC50 resistant line / IC50 parental line) [10]: much lower than paclitaxel
relative resistance (IC50 resistant line / IC50 parental line) [11]: much lower than paclitaxel
cytotoxicity of normal cells [12]: No cytotoxicity

Compound: C/C(=C\c1csc(C)n1)[C@@H]1C[C@@H]2O[C@]2(C)CCC[C@H](C)[C@H](O)[C@@H](C)C(=O)C(C)(C)[C@@H](O)CC(=O)O1 [epothilone B]
sensitivity of βIII-tubulin-overexpressing cell line compared with parental HeLa cells [4]: less sensitive

Compound: CC(=O)O[C@@H]1[C@H]2[C@H]3[C@H]([C@H](OC(C)=O)[C@H](OC(C)=O)[C@]2(C)[C@@H]2[C@@H]1[C@]1(C)C(=C[C@H]2C)OC(=O)[C@@]1(C)O)[C@]1(C)[C@H](C[C@@H]2O[C@@H]2[C@@H]1OC(C)=O)C(=O)[C@@H]3O [Taccalonolide A]
in vivo antitumor activity [1]: have in vivo antitumor activity
efficacy in vitro [2]: effective
efficacy in vitro [3]: effective
activity in vivo [13]: highly active

Compound: CC(=O)O[C@H]1[C@H]2[C@H]([C@@H]3[C@@H](O)[C@@H]4[C@H]([C@H](C)[C@@H]5O[C@@]56OC(=O)[C@@](C)(O)[C@]46C)[C@@]3(C)[C@H]1OC(C)=O)[C@@H](O)C(=O)[C@H]1C[C@@H]3O[C@@H]3[C@H](OC(C)=O)[C@]21C [Taccalonolide AJ]
fold increase in potency on epoxidation at C22-C23 ([5]; HeLa IC50): 743 fold
bundling of interphase microtubules [6]: formation of thick bundled microtubule tufts
effect on mitotic spindles [7]: mitotic arrest of cells with multiple abnormal mitotic spindles
rate and extent of tubulin polymerization [8]: dramatically increased
relative resistance (IC50 resistant line / IC50 parental line) [10]: much lower than paclitaxel
relative resistance (IC50 resistant line / IC50 parental line) [11]: much lower than paclitaxel
cytotoxicity of normal cells [12]: No cytotoxicity

Compound: CC(=O)O[C@H]1C(=O)[C@H]2C[C@@H]3O[C@@H]3[C@H](OC(C)=O)[C@]2(C)C2[C@@H]1[C@@H]1[C@@H](O)[C@@H]3[C@H]([C@H](C)C=C4OC(=O)[C@@](C)(O)[C@@]43C)[C@@]1(C)[C@@H](OC(C)=O)[C@H]2OC(C)=O (some centres unmarked) [TB-AC-16]
IC50 [5, 14]: 40000 nM

Compound: CC(=O)O[C@@]12CO[C@@H]1C[C@H](O)[C@@]1(C)C(=O)[C@H](O)C3=C(C)[C@@H](OC(=O)[C@H](O)[C@@H](NC(=O)OC(C)(C)C)c4ccccc4)C[C@@](O)([C@@H](OC(=O)c4ccccc4)[C@H]21)C3(C)C [docetaxel]
sensitivity of βIII-tubulin-overexpressing cell line compared with parental HeLa cells [4]: less sensitive

IC50 [5, 14]: 20000 nM
Compound: CC(=O)O[C@H]1C2[C@@H]([C@@H](O)[C@@H](O)[C@H]3C[C@@H]4O[C@@H]4[C@H](OC(C)=O)[C@]23C)[C@@H]2[C@@H](O)[C@@H]3[C@H]([C@H](C)C=C4OC(=O)[C@@](C)(O)[C@@]43C)[C@@]2(C)[C@H]1OC(C)=O (some centres unmarked) [TA-NaBH4-10]

Compound: CC(=O)O[C@@H]1[C@H]2[C@@H]3[C@@H](O)C(=O)[C@H]4C[C@@H]5O[C@@H]5[C@H](OC(C)=O)[C@]4(C)[C@H]3C[C@H](OC(C)=O)[C@]2(C)[C@@H]2[C@@H]1[C@]1(C)C(=C[C@H]2C)OC(=O)[C@@]1(C)O [Taccalonolide E]
in vivo antitumor activity [1]: have in vivo antitumor activity
efficacy in vitro [2]: effective
efficacy in vitro [3]: effective
activity in vivo [13]: highly active

Reference: patent US9340572B2, “Taccalonolide microtubule stabilizers” (THE BOARD OF REGENTS OF THE UNIVERSITY OF TEXAS SYSTEM, priority 2011, dated 2016)
